Data: ChEMBL document CHEMBL4311992, “Discovery of 3-(((9H-purin-6-yl)amino)methyl)-4,6-dimethylpyridin-2(1H)-one derivatives as novel tubulin polymerization inhibitors for treatment of cancer” (Eur J Med Chem, 2019)
pIC50: −log10 of the molar value.

Tests used:
[1] = target: Ribosomal protein S6 kinase alpha-3 (Homo sapiens) (UniProt P51812); assay: Inhibition of human Rsk2 (2 to end residues) using KKKNRTLSVA as substrate measured after 40 mins in presence of [gamma33P]ATP by scintillation counting method; parameters: scale not given: the % may be the effect or the level left
[2] = tested on: Ribosomal protein S6 kinase alpha-1 (Rattus norvegicus), Q63531 [S637N,G697A]; assay: Inhibition of recombinant full-length rat Rsk1 S637N/G697A mutant assessed as residual activity at 10 uM using KKKNRTLSVA as substrate measured after 40 mins in presence of [gamma33P]ATP by scintillation counting method
[3] = target: Serine/threonine-protein kinase Nek2 (Homo sapiens) (UniProt P51955); assay: Inhibition of recombinant full-length human NEK2 assessed as residual activity at 10 uM using myelin basic protein as substrate measured after 40 mins in presence of [gamma33P]ATP by scintillation counting method
[4] = target: Myosin light chain kinase 2, skeletal/cardiac muscle (Homo sapiens) (UniProt Q9H1R3); assay: Inhibition of recombinant full-length human MYLK2 assessed as residual activity at 10 uM using KKLNRTLSFAEPG as substrate measured after 40 mins in presence of [gamma33P]ATP by scintillation counting method
[5] = tested on: Hepatocyte growth factor receptor (Homo sapiens), P08581 [D1228H]; assay: Inhibition of recombinant human MET A1209G/V1290L/D1246H mutant (974 to end residues) assessed as residual activity at 10 uM using KKKGQEEEYVFIE as substrate measured after 40 mins in presence of [gamma33P]ATP by scintillation counting method
Homo sapiens = organism: Homo sapiens; assay: Inhibition of recombinant human Mer H628Q/R794A mutant (557 to 882 residues) assessed as residual activity at 10 uM using GGMEDIYFEFMGGKKK as substrate measured after 40 mins in presence of [gamma33P]ATP by scintillation counting method
[6] = target: Dual specificity mitogen-activated protein kinase kinase 2 (Homo sapiens) (UniProt P36507); assay: Inhibition of recombinant full-length human MEK2 assessed as residual activity at 10 uM using MBP as substrate measured after 40 mins in presence of [gamma33P]ATP by scintillation counting method
[7] = target: Aurora kinase B (Homo sapiens) (UniProt Q96GD4); assay: Inhibition of recombinant full-length human AURKB assessed as residual activity at 10 uM using AKRRRLSSLRA as substrate measured after 40 mins in presence of [gamma33P]ATP by scintillation counting method
[8] = target: Aurora kinase C (Homo sapiens) (UniProt Q9UQB9); assay: Inhibition of recombinant human AURKC (35 to end residues) assessed as residual activity at 10 uM using AKRRRLSSLRA as substrate measured after 40 mins in presence of [gamma33P]ATP by scintillation counting method
[9] = target: Vascular endothelial growth factor receptor 1 (Homo sapiens) (UniProt P17948); assay: Inhibition of recombinant human Flt1 (783 to end residues) assessed as residual activity at 10 uM using KKKSPGEYVNIEFG as substrate measured after 40 mins in presence of [gamma33P]ATP by scintillation counting method
[10] = target: Tyrosine-protein kinase ABL2 (Homo sapiens) (UniProt P42684); assay: Inhibition of recombinant human ARG (38 to end residues) assessed as residual activity at 10 uM using EAIYAAPFAKKK as substrate measured after 40 mins in presence of [gamma33P]ATP by scintillation counting method
[11] = tested on: Tyrosine-protein kinase ABL1 (Homo sapiens), P00519 [H396P]; assay: Inhibition of recombinant human ABL H396P mutant (27 to end residues) assessed as residual activity at 10 uM using EAIYAAPFAKKK as substrate measured after 40 mins in presence of [gamma33P]ATP by scintillation counting method
[12] = target: Dual specificity protein kinase CLK1 (Homo sapiens) (UniProt P49759); assay: Inhibition of recombinant human CLK1 (130 to end residues) assessed as residual activity at 10 uM using ERMRPRKRQGSVRRRV as substrate measured after 40 mins in presence of [gamma33P]ATP by scintillation counting method
HCT-116 [13] = assay: Induction of apoptosis in human HCT116 cells assessed as early apoptotic cells at 25 nM measured after 48 hrs by Annexin V-FITC/propidium iodide staining-based flow cytometry (reference value: 0.418%); assay type: functional
HCT-116 [14] = assay: Induction of apoptosis in human HCT116 cells assessed as viable cells at 25 nM measured after 48 hrs by Annexin V-FITC/propidium iodide staining-based flow cytometry (reference value: 94.5%); assay type: functional; settings: HCT-116, 48 h, read-out: Activity
HCT-116 [15] = assay: Antitumor activity against human HCT116 cells xenografted in nude BALB/c mouse assessed as tumor growth inhibition at 80 mg/kg, po administered once daily for 4 weeks measured post-last dose relative to control; assay type: functional; settings: HCT-116, po, 672 h, read-out: TGI
[16] = target: G protein-coupled receptor kinase 3 (Homo sapiens) (UniProt P35626); assay: Inhibition of recombinant full-length human GRK3 assessed as residual activity at 10 uM using casein as substrate measured after 40 mins in presence of [gamma33P]ATP by scintillation counting method
[17] = tested on: Glycogen synthase kinase-3 beta (Homo sapiens), P49841 [UNDEFINED MUTATION]; assay: Inhibition of recombinant human GSK3beta H350L mutant (2 to end residues) assessed as residual activity at 10 uM using phospho GS2 peptide as substrate measured after 40 mins in presence of [gamma33P]ATP by scintillation counting method
[18] = target: Tyrosine-protein kinase Lck (Homo sapiens) (UniProt P06239); assay: Inhibition of recombinant full-length human Lck assessed as residual activity at 10 uM using KVEKIGEGTYGVV as substrate measured after 40 mins in presence of [gamma33P]ATP by scintillation counting method
[19] = target: LIM domain kinase 1 (Homo sapiens) (UniProt P53667); assay: Inhibition of recombinant human LIMK1 (285 to 638 residues) assessed as residual activity at 10 uM using cofilin as substrate measured after 40 mins in presence of [gamma33P]ATP by scintillation counting method
[20] = target: Serine/threonine-protein kinase 3 (Homo sapiens) (UniProt Q13188); assay: Inhibition of recombinant full-length human MST2 (2 to end residues) assessed as residual activity at 10 uM using myelin basic protein as substrate measured after 40 mins in presence of [gamma33P]ATP by scintillation counting method
[21] = target: Serine/threonine-protein kinase 32C (Homo sapiens) (UniProt Q86UX6); assay: Inhibition of recombinant full-length human STK32C assessed as residual activity at 10 uM using casein as substrate measured after 120 mins in presence of [gamma33P]ATP by scintillation counting method
HCT-116 [22] = assay: Induction of apoptosis in human HCT116 cells assessed as necrotic cells at 50 nM measured after 48 hrs by Annexin V-FITC/propidium iodide staining-based flow cytometry (reference value: 1.16%); assay type: functional
HCT-116 [23] = assay: cells; settings: Homo sapiens, HCT-116, 72 h
Description: Antiproliferative activity against human HCT116 cells after 72 hrs by MTT assay

Chain of Serine/threonine-protein kinase Nek2 (Homo sapiens) (P51955 whole entry): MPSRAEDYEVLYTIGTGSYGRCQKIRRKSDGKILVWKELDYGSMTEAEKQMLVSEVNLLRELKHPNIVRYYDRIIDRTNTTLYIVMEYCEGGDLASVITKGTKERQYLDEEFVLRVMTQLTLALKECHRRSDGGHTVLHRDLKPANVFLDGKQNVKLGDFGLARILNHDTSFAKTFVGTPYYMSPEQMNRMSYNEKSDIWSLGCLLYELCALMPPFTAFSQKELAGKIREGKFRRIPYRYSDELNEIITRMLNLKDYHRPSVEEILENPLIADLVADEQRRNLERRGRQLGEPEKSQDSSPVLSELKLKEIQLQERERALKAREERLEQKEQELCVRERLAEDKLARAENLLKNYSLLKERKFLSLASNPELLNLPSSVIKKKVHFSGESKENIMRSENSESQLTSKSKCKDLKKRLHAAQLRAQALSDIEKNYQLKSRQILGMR
Chain of Glycogen synthase kinase-3 beta (Homo sapiens), P49841 [UNDEFINED MUTATION] (P49841 whole entry, looked up, stated change not applied): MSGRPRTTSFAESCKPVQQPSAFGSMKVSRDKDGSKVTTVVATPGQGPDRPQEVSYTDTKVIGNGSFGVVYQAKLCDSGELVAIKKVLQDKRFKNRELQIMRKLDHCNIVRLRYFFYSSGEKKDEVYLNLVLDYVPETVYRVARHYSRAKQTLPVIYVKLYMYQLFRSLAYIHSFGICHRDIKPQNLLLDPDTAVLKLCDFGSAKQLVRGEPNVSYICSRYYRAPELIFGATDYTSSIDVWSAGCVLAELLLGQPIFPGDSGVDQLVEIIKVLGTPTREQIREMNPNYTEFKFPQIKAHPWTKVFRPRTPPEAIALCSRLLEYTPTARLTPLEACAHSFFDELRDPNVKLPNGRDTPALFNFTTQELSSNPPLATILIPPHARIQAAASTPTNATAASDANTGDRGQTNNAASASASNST
Chain of Aurora kinase B (Homo sapiens) (Q96GD4 whole entry): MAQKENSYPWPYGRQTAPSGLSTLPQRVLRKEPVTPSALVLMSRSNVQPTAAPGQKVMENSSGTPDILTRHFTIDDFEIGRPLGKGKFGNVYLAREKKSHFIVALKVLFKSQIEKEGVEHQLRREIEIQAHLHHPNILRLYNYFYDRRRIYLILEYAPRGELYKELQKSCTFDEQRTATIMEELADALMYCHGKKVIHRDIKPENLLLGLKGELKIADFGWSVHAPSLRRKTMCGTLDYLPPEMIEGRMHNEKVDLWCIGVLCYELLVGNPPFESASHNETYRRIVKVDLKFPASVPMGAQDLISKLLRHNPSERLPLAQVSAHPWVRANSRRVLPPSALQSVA
Chain of Aurora kinase C (Homo sapiens) (Q9UQB9 whole entry): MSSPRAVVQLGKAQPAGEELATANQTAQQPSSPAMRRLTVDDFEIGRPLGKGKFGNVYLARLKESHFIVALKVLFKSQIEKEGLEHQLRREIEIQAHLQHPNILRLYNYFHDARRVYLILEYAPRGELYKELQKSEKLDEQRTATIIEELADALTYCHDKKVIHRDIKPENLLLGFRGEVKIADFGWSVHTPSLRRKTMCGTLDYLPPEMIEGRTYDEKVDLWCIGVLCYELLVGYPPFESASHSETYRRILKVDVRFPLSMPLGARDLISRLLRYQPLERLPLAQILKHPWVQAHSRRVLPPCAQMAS
Chain of Serine/threonine-protein kinase 3 (Homo sapiens) (Q13188 whole entry): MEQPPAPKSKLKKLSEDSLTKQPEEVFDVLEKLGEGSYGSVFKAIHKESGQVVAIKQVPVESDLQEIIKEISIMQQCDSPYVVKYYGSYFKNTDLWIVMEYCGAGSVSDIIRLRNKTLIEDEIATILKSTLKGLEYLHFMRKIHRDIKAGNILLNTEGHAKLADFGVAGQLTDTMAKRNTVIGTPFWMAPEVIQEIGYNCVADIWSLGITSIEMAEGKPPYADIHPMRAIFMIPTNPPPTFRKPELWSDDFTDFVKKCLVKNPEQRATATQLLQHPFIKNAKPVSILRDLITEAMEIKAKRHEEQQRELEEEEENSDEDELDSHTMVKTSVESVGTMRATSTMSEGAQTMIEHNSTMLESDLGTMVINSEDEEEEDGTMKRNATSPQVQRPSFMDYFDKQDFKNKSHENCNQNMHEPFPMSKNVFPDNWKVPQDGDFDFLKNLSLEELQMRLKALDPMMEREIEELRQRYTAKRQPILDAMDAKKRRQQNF
Chain of Dual specificity mitogen-activated protein kinase kinase 2 (Homo sapiens) (P36507 whole entry): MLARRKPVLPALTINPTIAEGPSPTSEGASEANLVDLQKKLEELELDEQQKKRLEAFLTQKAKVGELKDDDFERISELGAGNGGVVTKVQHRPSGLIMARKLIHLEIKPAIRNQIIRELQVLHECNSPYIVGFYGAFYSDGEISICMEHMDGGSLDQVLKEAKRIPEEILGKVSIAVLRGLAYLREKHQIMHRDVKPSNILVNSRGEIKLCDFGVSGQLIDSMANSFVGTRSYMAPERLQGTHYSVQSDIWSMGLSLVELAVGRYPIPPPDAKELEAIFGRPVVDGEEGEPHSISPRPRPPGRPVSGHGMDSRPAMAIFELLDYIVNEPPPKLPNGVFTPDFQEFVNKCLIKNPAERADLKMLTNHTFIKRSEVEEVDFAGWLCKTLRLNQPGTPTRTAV
Chain of Ribosomal protein S6 kinase alpha-1 (Rattus norvegicus), Q63531 [S637N,G697A] (Q63531 whole entry S637N/G697A): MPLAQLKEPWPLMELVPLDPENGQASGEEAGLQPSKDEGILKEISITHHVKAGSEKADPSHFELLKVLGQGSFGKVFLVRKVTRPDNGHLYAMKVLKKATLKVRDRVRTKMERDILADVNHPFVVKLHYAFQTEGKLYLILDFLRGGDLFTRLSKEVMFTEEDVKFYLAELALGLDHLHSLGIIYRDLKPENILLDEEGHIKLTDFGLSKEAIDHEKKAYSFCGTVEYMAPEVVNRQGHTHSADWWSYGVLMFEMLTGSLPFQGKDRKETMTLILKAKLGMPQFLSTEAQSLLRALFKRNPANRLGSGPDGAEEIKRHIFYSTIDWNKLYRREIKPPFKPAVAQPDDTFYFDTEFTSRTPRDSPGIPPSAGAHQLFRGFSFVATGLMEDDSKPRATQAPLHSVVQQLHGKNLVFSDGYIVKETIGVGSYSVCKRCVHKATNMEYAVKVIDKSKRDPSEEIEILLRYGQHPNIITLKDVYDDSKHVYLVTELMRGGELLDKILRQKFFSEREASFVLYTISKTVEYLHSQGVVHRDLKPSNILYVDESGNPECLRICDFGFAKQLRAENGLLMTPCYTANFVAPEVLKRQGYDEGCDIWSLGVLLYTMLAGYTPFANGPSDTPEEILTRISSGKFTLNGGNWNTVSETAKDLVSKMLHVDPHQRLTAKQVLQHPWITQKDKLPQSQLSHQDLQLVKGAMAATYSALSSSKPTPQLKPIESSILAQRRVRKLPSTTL
Chain of Serine/threonine-protein kinase 32C (Homo sapiens) (Q86UX6 whole entry): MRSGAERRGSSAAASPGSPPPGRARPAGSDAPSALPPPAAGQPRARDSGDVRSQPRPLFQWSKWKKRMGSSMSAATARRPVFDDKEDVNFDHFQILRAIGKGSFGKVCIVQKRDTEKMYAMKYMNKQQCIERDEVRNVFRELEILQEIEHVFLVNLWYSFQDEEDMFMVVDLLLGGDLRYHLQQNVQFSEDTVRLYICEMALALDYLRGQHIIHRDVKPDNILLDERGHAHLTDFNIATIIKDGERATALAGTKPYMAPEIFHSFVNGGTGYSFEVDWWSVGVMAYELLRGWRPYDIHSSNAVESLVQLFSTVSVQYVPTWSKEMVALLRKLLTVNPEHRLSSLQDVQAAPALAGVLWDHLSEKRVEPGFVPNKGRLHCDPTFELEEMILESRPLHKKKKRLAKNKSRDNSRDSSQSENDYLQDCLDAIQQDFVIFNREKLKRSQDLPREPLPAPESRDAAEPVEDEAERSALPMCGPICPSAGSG
Chain of Vascular endothelial growth factor receptor 1 (Homo sapiens) (P17948 whole entry): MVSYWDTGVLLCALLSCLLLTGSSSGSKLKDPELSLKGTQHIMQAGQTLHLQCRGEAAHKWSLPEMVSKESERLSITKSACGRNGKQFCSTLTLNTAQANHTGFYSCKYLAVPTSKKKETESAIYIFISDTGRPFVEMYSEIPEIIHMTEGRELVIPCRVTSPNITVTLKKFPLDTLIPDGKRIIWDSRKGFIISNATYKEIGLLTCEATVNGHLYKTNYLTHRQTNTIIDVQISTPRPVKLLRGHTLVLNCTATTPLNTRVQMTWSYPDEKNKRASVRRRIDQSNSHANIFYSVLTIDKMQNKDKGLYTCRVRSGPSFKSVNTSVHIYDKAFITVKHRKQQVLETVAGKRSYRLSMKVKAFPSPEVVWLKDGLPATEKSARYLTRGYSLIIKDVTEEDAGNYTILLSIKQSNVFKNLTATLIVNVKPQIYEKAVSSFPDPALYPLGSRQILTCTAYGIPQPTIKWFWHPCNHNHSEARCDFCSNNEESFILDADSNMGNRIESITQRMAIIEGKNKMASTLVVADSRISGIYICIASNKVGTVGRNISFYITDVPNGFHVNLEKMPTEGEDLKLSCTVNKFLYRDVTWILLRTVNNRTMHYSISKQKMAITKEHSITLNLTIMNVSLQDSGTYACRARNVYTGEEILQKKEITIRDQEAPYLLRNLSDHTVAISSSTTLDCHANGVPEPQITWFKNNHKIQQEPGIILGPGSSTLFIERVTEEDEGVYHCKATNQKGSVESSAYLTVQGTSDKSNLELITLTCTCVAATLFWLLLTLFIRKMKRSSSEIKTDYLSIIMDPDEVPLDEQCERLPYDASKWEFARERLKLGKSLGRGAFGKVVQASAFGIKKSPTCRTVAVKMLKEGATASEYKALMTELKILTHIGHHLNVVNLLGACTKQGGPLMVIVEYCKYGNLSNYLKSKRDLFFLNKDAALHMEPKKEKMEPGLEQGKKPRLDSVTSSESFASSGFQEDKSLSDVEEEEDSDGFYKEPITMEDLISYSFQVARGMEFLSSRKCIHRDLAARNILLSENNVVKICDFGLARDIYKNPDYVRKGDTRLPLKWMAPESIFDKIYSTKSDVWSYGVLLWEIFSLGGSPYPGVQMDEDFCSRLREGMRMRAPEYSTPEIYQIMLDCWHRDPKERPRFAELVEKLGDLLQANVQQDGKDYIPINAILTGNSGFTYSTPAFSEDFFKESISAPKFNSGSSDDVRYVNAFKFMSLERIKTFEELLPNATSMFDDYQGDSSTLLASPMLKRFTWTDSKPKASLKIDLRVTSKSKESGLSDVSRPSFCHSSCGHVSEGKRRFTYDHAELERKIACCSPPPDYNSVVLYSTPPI

Question: Which results are given for Cc1cc(C)c(CNc2nc(Cl)nc3c2ncn3C2CCCC2)c(=O)[nH]1?
Answer: Activity [1]: 100%; Activity [2]: 104%; Activity [3]: 101%; Activity [4]: 98%; Activity [5]: 108%; Activity (Homo sapiens): 109%; Activity [6]: 109%; Activity [7]: 143%; Activity [8]: 106%; Activity [9]: 97.5%; Activity [10]: 115%; Activity [11]: 104%; Activity [12]: 108%; Activity (HCT-116 [13]): 1.54%; viability at 0.025 µM (HCT-116 [14]): 95.9%; inhibition in vivo at 80 mg/kg (HCT-116 [15]): 71.6%; Activity [16]: 100%; Activity [17]: 112%; Activity [18]: 84.5%; Activity [19]: 101%; Activity [20]: 110%; Activity [21]: 97%; Activity (HCT-116 [22]): 7.59%; pIC50 (HCT-116 [23]): 7.22
